Test results reported in US10695334B2, “Heteroaromatic carboxamide derivatives as plasma kallikrein inhibitors” (Boehringer Ingelheim International GmbH, priority 2018, dated 2020).

What was measured:
Type in all cases: biochemical
[1] = target: T1, Human PKK (Homo sapiens (Human), UniProt P03952); assay: Inhibition of PKK, endpoint assay (human PKK); details: substrate H-Pro-Phe-Arg-AMC, 1 h room temperature
Experimental: Subsequently, PPACK II (Calbiochem) was added as a stop solution to achieve a final concentration of 1 μM and fluorescence was measured using an Envision Reader (PerkinElmer) with the wavelength excitation setting of 355 nm and the wavelength emission setting of 460 nm.

[2] = target: human TK1 (Homo sapiens (Human), UniProt P06870); assay: Inhibition of TK1 (Ki); details: column head prints IC50, text above the table says Ki values
Experimental: The ability of compounds of formula (I) to inhibit plasma kallikrein (PKK), Factor Xlla (FXIIa), Factor Xla (FXIa), Factor Xa (FXa), Factor Ila (alpha-thrombin; FIIa), plasmin, trypsin, tissue kallikrein 1 (TK1), Factor VIIa (FVIIa), or FVIIa complexed with Tissue Factor, phospholipids and CaCl2 (FVIIa/TF/PL/CaCl2) was determined using the following biochemical assays in assay buffer (100 mM Tris, 150 mM NaCL, adjusted to a pH of 7.8 with HCl, and containing 0.1% (w/v) BSA and 0.05% (v/v) Tween20) in the presence of 1% (v/v) DMSO: EVALUATION OF THE INHIBITION OF PKK USING AN ENDPOINT ASSAY Human PKK (0.01 U/mL; Enzyme Research Laboratories) or rat PKK (0.625 nM; produced in-house) was incubated for 1 h at room temperature with 0.10 μM fluorogenic substrate H-Pro-Phe-Arg-AMC (11295 from Bachem) and various concentrations of the test compound in assay buffer. Subsequently, PPACK II (Calbiochem) was added as a stop solution to achieve a final concentration of 1 μM and fluorescence was measured using an Envision Reader (PerkinElmer) with the wavelength excitation setting of 355 nm and the wavelength emission setting of 460 nm.
Prior to the assay, human TK1 (R&D Systems) was activated by incubation with human trypsin (Calbiochem) in a 1:10,000 ratio for 15 min at 37° C. For assaying TK1 inhibitory activity, activated TK1 (31.25 nM or 1 U/mL) was incubated at 24° C. with 0.1 mM fluorogenic substrate H-Pro-Phe-Arg-AMC (11295 from Bachem) and various concentrations of the test compound in assay buffer. Measurements were performed in a kinetic interval every 2nd minute for 16 min using a Spectramax M5 (Molecular Devices) with the following settings of the wavelength excitation of 350 nm and wavelength emission of 450 nm.
The average Vmax values for the time interval from 2 to 12 min after initiation of the assay (expressed as either delta OD/min for assays using a chromogenic substrate or delta RFU/min for assays using a fluorigenic substrate, respectively) were plotted versus the Log of the concentration in molar of the evaluated inhibitor compound. The pIC50 values were then fitted using a four-parametric fitting procedure using GraphPad Prism (version 6; GraphPad Software, Inc.). Respective Ki values were obtained by correction of the IC50 values for the respective KM value of the used substrate (see Table A for the obtained KM values of the used substrates) using the following formula: […]
(§1) Where the IC50 is in molar and the KM value in mM.

[3] = target: T1, Human PKK; assay: Inhibition of PKK (Ki), kinetic assay; details: 24° C., IC50 corrected for KM
Experimental: Measurements were performed in a kinetic interval every 2nd minute for 16 min using a Spectramax M5 (Molecular Devices) with the following settings of the wavelength excitation of 350 nm and wavelength emission of 450 nm. The number of the compound corresponds to the number of the Example in the experimental section.
The pIC50 values were then fitted using a four-parametric fitting procedure using GraphPad Prism (version 6; GraphPad Software, Inc.).
as §1

T1 sequence (P03952 391-638): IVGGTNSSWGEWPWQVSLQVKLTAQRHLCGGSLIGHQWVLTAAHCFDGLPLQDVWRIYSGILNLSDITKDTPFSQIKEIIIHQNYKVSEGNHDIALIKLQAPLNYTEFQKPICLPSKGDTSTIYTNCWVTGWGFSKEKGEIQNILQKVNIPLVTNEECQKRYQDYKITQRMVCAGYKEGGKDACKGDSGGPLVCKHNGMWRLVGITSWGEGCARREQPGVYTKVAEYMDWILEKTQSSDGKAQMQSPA
T1 sequence (P03952 20-390 partner): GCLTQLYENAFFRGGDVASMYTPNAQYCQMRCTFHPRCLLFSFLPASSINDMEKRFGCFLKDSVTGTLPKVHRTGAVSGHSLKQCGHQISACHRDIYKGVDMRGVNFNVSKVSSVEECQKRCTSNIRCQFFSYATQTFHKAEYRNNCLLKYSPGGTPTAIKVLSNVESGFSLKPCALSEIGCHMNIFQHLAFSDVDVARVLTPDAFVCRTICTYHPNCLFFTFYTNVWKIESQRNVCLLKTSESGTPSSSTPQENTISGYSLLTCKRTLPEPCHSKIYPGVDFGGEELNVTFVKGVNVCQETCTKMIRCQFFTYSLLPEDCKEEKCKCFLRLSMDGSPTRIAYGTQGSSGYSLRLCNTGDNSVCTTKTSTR
Chain of human TK1 (P06870 25-262): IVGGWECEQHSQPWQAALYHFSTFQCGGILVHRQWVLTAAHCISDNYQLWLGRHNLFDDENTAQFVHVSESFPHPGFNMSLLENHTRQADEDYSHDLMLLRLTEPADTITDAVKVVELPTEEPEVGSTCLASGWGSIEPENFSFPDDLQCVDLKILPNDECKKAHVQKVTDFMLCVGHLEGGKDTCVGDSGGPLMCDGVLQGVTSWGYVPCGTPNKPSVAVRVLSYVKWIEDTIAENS

IC50 [1]	IC50 [2]	Ki [3]	SMILES
0.4 nM	> 10000 nM		Cc1nc(N2CC3CC3C2)ccc1Cn1cc(C(=O)N[C@@H]2CCc3c(C)n[nH]c32)nn1 (stereo partly drawn) [Example 86, 1-[(6-{3-Azabicyclo[3.1.0]hexan-3-yl}-2-methylpyridin-3-yl)methyl]-N-[(6R)-3-methyl-1H,4H,5H,6H-cyclopenta[c]pyrazol-6-yl]-1H-1,2,3-triazole-4-carboxamide]
5 nM	> 10000 nM		Cc1nc(N2CCC3CC3C2)ccc1Cn1cc(C(=O)N[C@@H]2CCc3c2n[nH]c3C)cn1 (stereo partly drawn) [Example 48, 1-[(6-{3-Azabicyclo[4.1.0]heptan-3-yl}-2-methylpyridin-3-yl)methyl]-N-[(6R)-3-methyl-2H,4H,5H,6H-cyclopenta[c]pyrazol-6-yl]-1H-pyrazole-4-carboxamide]
0.6 nM	> 10000 nM		Cc1nc(N2CC3C(C2)C3(F)F)ccc1Cn1cnc(C(=O)N[C@@H]2CCc3c2n[nH]c3C)c1 (stereo partly drawn) [Example 89, 1-[(6-{6,6-Difluoro-3-azabicyclo[3.1.0]hexan-3-yl}-2-methylpyridin-3-yl)methyl]-N-[(6R)-3-methyl-2H,4H,5H,6H-cyclopenta[c]pyrazol-6-yl]-1H-imidazole-4-carboxamide]
3 nM	> 10000 nM		Cc1nc(N2CC3CC3C2)ncc1Cn1cc(C(=O)N[C@@H]2CCc3c(C)n[nH]c32)c(C)n1 (stereo partly drawn) [Example 25, 1-[(2-{3-Azabicyclo[3.1.0]hexan-3-yl}-4-methyl-pyrimidin-5-yl)methyl]-3-methyl-N-[(6R)-3-methyl-1H,4H,5H,6H-cyclopenta[c]pyrazol-6-yl]-1H-pyrazole-4-carboxamide]
1 nM	> 10000 nM		Cc1nc(N2CC3C(C2)C3(F)F)ncc1Cn1cnc(C(=O)N[C@@H]2CCc3c2n[nH]c3C)c1 (stereo partly drawn) [Example 92, 1-[(2-{6,6-Difluoro-3-azabicyclo[3.1.0]hexan-3-yl}-4-methylpyrimidin-5-yl)methyl]-N-[(6R)-3-methyl-2H,4H,5H,6H-cyclopenta[c]pyrazol-6-yl]-1H-imidazole-4-carboxamide]
0.8 nM	> 10000 nM	0.1 nM	COCc1nn(Cc2ccc(N3CC4C(C3)C4(F)F)nc2C)cc1C(=O)N[C@@H]1CCc2c(C)n[nH]c21 (stereo partly drawn) [Example 15, 1-[(6-{6,6-Difluoro-3-azabicyclo[3.1.0]hexan-3-yl}-2-methylpyridin-3-yl)methyl]-3-(methoxymethyl)-N-[(6R)-3-methyl-1H,4H,5H,6H-cyclopenta[c]-pyrazol-6-yl]-1H-pyrazole-4-carboxamide]
1 nM	> 10000 nM		Cc1nc(N2CC3(CC3)C2)ccc1Cn1cnc(C(=O)N[C@@H]2CCc3c(C)n[nH]c32)c1 [Example 88, 1-[(6-{5-Azaspiro[2.3]hexan-5-yl}-2-methylpyridin-3-yl)methyl]-N-[(6R)-3-methyl-2H,4H,5H,6H-cyclo-penta[c]pyrazol-6-yl]-1H-imidazole-4-carboxamide]
4 nM	> 10000 nM		Cc1nc(N2CC3(CC3)C2)ncc1Cn1cnc(C(=O)N[C@@H]2CCc3c(C)n[nH]c32)c1 [Example 93, 1-[(2-{5-Azaspiro[2.3]hexan-5-yl}-4-methyl-pyrimidin-5-yl)methyl]-N-[(6R)-3-methyl-2H,4H,5H,6H-cyclopenta[c]pyrazol-6-yl]-1H-imidazole-4-carboxamide]
0.5 nM	> 10000 nM	0.1 nM	Cc1nc(N2CC3CC3C2)ccc1Cn1cc(C(=O)N[C@@H]2CCc3c(C)n[nH]c32)c(C(F)F)n1 (stereo partly drawn) [Example 14, 1-[(6-{3-Azabicyclo[3.1.0]hexan-3-yl}-2-methyl-pyridin-3-y)methyl]-3-(difluoromethyl)-N-[(6R)-3-methyl-1H,4H,5H,6H-cyclopenta[c]pyrazol-6-yl]-1H-pyrazole-4-carboxamide]
3 nM	> 10000 nM		Cc1nc(N2CC3CC3C2)ccc1Cc1ccc(C(=O)N[C@@H]2CCc3c(C)n[nH]c32)[nH]1 (stereo partly drawn) [Example 109, 5-[(6-{3-Azabicyclo[3.1.0]hexan-3-yl}-2-methylpyridin-3-yl)methyl]-N-[(6R)-3-methyl-1H,4H,5H,6H-cyclopenta[c]pyrazol-6-yl]-1H-pyrrole-2-carboxamide]
0.8 nM	> 10000 nM		Cc1nc(N2CC3CC3C2)ccc1Cn1cnc(C(=O)N[C@@H]2CCc3c2n[nH]c3C)c1 (stereo partly drawn) [Example 90, 1-[(6-{3-Azabicyclo[3.1.0]hexan-3-yl}-2-methyl-pyridin-3-yl)methyl]-N-[(6R)-3-methyl-2H,4H,5H,6H-cyclopenta[c]pyrazol-6-yl]-1H-imidazole-4-carboxamide]
2 nM	> 10000 nM		Cc1nc(N2CC3CC3C2C)ccc1Cn1cc(C(=O)N[C@@H]2CCc3c2n[nH]c3C)cn1 (stereo partly drawn) [Example 82, N-[(6R)-3-Methyl-2H,4H,5H,6H-cyclopenta[c]pyrazol-6-yl]-1-[(2-methyl-6-{2-methyl-3-azabicyclo[3.1.0]hexan-3-yl}pyridin-3-yl)methyl]-1H-pyrazole-4-carboxamide]
4 nM	> 10000 nM		Cc1nc(N2CCC3(CC3)C2)ccc1Cn1cc(C(=O)N[C@@H]2CCc3c2n[nH]c3C)cn1 [Example 45, 1-[(6-{5-Azaspiro[2.4]heptan-5-yl]-2-methylpyridin-3-yl)methyl]-N-[(6R)-3-methyl-2H,4H,5H,6H-cyclopenta[c]pyrazol-6-yl]-1H-pyrazole-4-carboxamide]
4 nM	> 10000 nM		Cc1nc(N2C[C@@H]3[C@@H](C)[C@@H]3C2)ccc1Cn1cc(C(=O)N[C@@H]2CCc3c2n[nH]c3C)cn1 [Example 79, N-[(6R)-3-Methyl-2H,4H,5H,6H-cyclopenta[c]pyrazol-6-yl]-1-({2-methyl-6-[(1R,5S,6R)-6-methyl-3-azabicyclo[3.1.0]hexan-3-yl]pyridin-3-yl}methyl)-1H-pyrazole-4-carboxamide]
3 nM			Cc1nc(N2CC3C(C2)C3(F)F)ncc1Cn1cc(C(=O)N[C@@H]2CCc3c(C)n[nH]c32)c(C)n1 (stereo partly drawn) [Example 27, 1-[(2-{6,6-Difluoro-3-azabicyclo[3.1.0]hexan-3-yl}-4-methylpyrimidin-5-yl)methyl]-3-methyl-N-[(6R)-3-methyl-1H,4H,5H,6H-cyclopenta[c]pyrazol-6-yl]-1H-pyrazole-4-carboxamide]

SMILES	IC50 [1]	IC50 [2]	Ki [3]
Cc1nc(N2CC3C(C2)C3(F)F)ncc1Cn1cc(C(=O)N[C@@H]2CCc3c(C)n[nH]c32)c2cncnc21 (stereo partly drawn) [Example 21, 7-[(2-{6,6-Difluoro-3-azabicyclo[3.1.0]hexan-3-yl}-4-methylpyrimidin-5-yl)methyl]-N-[(6R)-3-methyl-1H,4H,5H,6H-cyclopenta[c]pyrazol-6-yl]-7H-pyrrolo[2,3-d]pyrimidine-5-carboxamide]	1 nM	> 10000 nM	0.1 nM
Cc1nc(N2CC3(CC3)C2)ncc1Cn1cc(C(=O)N[C@@H]2CCc3c(C)n[nH]c32)c2cncnc21 [Example 33, 7-[(2-{5-Azaspiro[2.3]hexan-5-yl}-4-methyl-pyrimidin-5-yl)methyl]-N-[(6R)-3-methyl-1H,4H,5H,6H-cyclopenta[c]pyrazol-6-yl]-7H-pyrrolo[2,3-d]pyrimidine-5-carboxamide]	3 nM	> 10000 nM	
Cc1nc(N2C[C@@H]3[C@@H](CO)[C@@H]3C2)ccc1Cn1cc(C(=O)N[C@@H]2CCc3c(C)n[nH]c32)cn1 [Example 94, 1-({6-[(1R,5S,6R)-6-(hydroxymethyl)-3-azabicyclo[3.1.0]hexan-3-yl]-2-methylpyridin-3-yl}methyl)-N-[(6R)-3-methyl-1H,4H,5H,6H-cyclopenta[c]pyrazol-6-yl]-1H-pyrazole-4-carboxamide]	2 nM	> 10000 nM	
